Source: patent US20140135310A1, “SULPHONAMIDE DERIVATIVES OF ALICYCLIC AMINES FOR THE TREATMENT OF CENTRAL NERVOUS SYSTEM DISEASES” (Adamed Sp. z o.o., priority 2011, published 2014)

Key:
M3 muscarinic receptors = target: T1, M3 muscarinic receptors (Homo sapiens, UniProt P20309); experiment: Radioligand binding assay, muscarinic M3 receptors; settings: test compound 1×10^−6 M
T1 construct: expressed in transfected cells; host or cells: CHO cells
Text: (§1) The specific ligand binding to the receptors is defined as the difference between the total binding and the non-specific binding determined in the presence of the excess of unlabelled ligand.
(§2) The results are expressed as a percent of control specific binding ((measured specific binding/control specific binding)×100) and as a percent inhibition of control specific binding (100−((measured specific binding/control specific binding)×100)) obtained in the presence of the test compounds. The specific ligand binding to the receptors is defined as the difference between the total binding and the nonspecific binding determined in the presence of an excess of unlabelled ligand. Scintillation counting was the method of detection of ligand binding. The IC50 values (concentration causing a half-maximal inhibition of control specific binding) were determined by non-linear regression analysis of the competition curves generated with mean replicate values using Hill equation curve fitting (Y=D+[(A−D)/(1+(C/C50)nH)], where Y=specific binding, D=minimum specific binding, A=maximum specific binding, C=compound concentration, C50=IC50, and nH=slope factor). This analysis was performed using a software developed at Cerep (Hill software) and validated by comparison with data generated by the commercial software SigmaPlot® 4.0 for Windows® (© 1997 by SPSS Inc.). The inhibition constants (Ki) were calculated using the Cheng Prusoff equation (Ki=IC50/(1+(L/KD)), where L=concentration of radioligand in the assay, and KD=affinity of the radioligand for the receptor). A scatchard plot was used to determine the Kd.
Experimental conditions for tests are given in Table 10, and results of tests for representative compounds are given in Table 11.

5-HT2C receptor = target: T2, 5-HT2C receptor (Homo sapiens, UniProt P28335); experiment: Radioligand binding assay, serotoninergic 5-HT2C receptors; settings: test compound 1×10^−6 M
T2 construct: expressed in transfected cells; host or cells: HEK-293 cells
T2 sequence (P28335 33-458): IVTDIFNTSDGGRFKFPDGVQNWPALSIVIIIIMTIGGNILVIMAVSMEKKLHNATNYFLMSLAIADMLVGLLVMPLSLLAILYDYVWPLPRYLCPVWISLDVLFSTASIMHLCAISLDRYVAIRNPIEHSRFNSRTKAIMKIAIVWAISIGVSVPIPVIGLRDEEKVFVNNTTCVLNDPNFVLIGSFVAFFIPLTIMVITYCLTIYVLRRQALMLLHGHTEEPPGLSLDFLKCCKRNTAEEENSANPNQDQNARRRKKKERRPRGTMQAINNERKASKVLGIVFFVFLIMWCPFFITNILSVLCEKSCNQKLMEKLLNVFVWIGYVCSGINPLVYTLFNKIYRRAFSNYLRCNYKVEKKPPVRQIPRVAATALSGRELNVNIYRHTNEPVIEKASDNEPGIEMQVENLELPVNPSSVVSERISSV
Text: as §1, §2
Experimental conditions for tests are given in Table 4, and results of tests for representative compounds of the invention are given in Table 5a and 5b (receptors 5-HT1A, 5-HT2A, 5-HT6 and 5-HT7) and in Table 6 (receptors 5-HT2C).

5-HT7 receptor = target: T3, 5-HT7 receptor (Homo sapiens, UniProt P34969); experiment: Radioligand binding assay, serotoninergic 5-HT7 receptors; settings: binding assay result in %, Table 5a;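 further: test compound at 1 µM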
T3 construct: purchased PerkinElmer
T3 sequence (P34969 whole entry): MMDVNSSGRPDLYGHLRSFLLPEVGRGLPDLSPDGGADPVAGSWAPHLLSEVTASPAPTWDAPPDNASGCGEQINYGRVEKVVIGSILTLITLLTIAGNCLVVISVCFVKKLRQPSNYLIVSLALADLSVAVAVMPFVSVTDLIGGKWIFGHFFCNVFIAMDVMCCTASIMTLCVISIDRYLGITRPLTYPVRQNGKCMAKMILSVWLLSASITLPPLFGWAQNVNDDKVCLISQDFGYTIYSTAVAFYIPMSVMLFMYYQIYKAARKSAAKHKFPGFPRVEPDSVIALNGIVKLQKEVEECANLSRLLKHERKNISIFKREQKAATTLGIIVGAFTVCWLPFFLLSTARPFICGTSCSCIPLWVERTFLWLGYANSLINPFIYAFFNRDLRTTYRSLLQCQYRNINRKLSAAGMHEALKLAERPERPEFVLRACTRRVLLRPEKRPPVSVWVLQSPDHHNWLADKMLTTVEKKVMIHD
Outline: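 Ki values used the Cheng–Prusoff equation, with KD from Scatchard analysis, applied to IC50 from Hill fits of human 5-HT7 radioligand competition curves. Bound radioligand was counted by scintillation, and excess unlabelled ligand set the non-specific binding.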

receptors D4.4 = target: T4, receptors D4.4 (Homo sapiens, UniProt P21917); experiment: Radioligand binding assay, dopaminergic D4 (D4.4) receptors; settings: test compound 1×10^−6 M
T4 sequence (P21917 1-419): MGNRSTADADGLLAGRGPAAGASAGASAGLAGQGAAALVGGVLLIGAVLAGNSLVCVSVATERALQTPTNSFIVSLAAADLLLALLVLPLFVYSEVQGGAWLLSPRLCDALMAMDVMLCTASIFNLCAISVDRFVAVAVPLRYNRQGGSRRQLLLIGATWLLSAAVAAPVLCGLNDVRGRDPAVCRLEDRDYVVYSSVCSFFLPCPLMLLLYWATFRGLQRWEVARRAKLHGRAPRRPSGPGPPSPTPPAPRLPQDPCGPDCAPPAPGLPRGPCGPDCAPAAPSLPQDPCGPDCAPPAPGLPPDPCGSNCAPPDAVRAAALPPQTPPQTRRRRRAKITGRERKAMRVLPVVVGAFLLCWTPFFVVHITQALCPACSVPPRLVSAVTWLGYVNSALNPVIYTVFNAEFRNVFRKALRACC
Text: as §1, §2
Experimental conditions for tests are given in Table 1, the results of tests for representative compounds are given in Tables 2a and 2b (receptors D2 and D3) and in Table 3 (receptors D4).

5-HT6 receptor = target: T5, 5-HT6 receptor (Homo sapiens, UniProt P50406); experiment: Radioligand binding assay, serotoninergic 5-HT6 receptors; settings: for inhibition at 1 µM / 5-HT6 [%]: binding assay result in %, Table 5a; for Ki: read-out: Inhibition constants Ki, 5-HT6;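 on 5-HT6 [%]: test compound at 1 µM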
T5 construct: purchased PerkinElmer
T5 sequence (P50406 whole entry): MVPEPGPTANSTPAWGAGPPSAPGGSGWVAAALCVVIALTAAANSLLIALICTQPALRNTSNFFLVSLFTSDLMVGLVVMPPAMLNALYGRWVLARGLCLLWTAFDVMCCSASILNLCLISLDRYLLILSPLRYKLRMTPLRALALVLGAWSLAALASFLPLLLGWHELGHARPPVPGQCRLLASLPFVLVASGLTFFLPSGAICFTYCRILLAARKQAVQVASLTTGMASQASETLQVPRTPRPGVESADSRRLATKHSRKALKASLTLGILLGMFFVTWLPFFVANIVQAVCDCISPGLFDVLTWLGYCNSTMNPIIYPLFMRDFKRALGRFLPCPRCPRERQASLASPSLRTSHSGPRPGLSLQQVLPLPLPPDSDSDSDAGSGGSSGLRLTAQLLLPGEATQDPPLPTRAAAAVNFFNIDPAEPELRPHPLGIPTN
Outline: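 Values are Ki from Cheng–Prusoff, taking IC50 from Hill nonlinear regression of competition curves and KD from a Scatchard plot. Specific binding was total minus binding with excess unlabelled ligand. Radioligand displacement was detected by scintillation counting, and data were also reported as percent of control specific binding.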

5-HT2A receptor = target: T6, 5-HT2A receptor (Homo sapiens, UniProt P28223); experiment: Radioligand binding assay, serotoninergic 5-HT2A receptors; settings: for inhibition at 1 µM / 5-HT2A [%]: binding assay result in %, Table 5a; for Ki: read-out: Inhibition constants Ki, 5-HT2A
T6 construct: purchased PerkinElmer
T6 sequence (P28223 whole entry): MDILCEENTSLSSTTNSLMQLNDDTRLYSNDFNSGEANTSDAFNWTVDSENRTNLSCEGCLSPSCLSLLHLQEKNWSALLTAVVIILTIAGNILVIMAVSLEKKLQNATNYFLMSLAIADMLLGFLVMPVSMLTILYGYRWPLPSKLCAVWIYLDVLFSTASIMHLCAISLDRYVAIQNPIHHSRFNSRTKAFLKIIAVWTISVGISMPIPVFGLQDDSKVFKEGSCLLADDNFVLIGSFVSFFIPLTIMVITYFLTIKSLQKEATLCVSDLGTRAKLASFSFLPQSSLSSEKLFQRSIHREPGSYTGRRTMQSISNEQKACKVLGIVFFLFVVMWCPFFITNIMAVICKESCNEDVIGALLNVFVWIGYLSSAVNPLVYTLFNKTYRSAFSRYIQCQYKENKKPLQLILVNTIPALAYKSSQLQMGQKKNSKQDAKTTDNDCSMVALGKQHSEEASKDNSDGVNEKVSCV
Outline: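 Competition curves from scintillation-counted specific binding (total minus binding with excess unlabelled ligand) were Hill-fitted to give IC50, converted to Ki via Cheng-Prusoff using Scatchard-derived Kd.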

[1] = target: dopaminergic receptors D3 (Homo sapiens, UniProt P35462); experiment: Radioligand binding assay, dopaminergic D3 receptors; settings: test compound 1×10^−6 M
dopaminergic receptors D3, sequence (P35462 whole entry): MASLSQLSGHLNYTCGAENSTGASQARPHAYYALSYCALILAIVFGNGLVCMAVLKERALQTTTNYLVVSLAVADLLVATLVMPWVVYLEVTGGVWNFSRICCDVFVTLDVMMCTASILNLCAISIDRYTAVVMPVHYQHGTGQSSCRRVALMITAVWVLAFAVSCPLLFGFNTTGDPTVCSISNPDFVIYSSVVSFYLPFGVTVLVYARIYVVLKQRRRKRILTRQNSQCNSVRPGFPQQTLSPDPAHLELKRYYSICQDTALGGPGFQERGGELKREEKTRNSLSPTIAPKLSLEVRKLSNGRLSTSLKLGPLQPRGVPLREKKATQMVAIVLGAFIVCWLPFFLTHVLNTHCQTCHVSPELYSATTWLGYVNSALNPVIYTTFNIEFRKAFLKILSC
Outline: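 Scintillation read-out. Specific = total − nonspecific (excess cold ligand). Data as % of control specific binding / % inhibition; IC50 by Hill fit; Ki = IC50/(1+L/KD), KD from Scatchard plot.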

[2] = target: T7, H1 histaminergic receptors (Homo sapiens, UniProt P35367); experiment: Radioligand binding assay, histaminergic H1 receptors; settings: human recombinant (HEK-293 cells), [3H]pyrilamine 1 nM
T7 construct: expressed in transfected cells; host or cells: HEK-293 cells
T7 sequence (P35367 whole entry): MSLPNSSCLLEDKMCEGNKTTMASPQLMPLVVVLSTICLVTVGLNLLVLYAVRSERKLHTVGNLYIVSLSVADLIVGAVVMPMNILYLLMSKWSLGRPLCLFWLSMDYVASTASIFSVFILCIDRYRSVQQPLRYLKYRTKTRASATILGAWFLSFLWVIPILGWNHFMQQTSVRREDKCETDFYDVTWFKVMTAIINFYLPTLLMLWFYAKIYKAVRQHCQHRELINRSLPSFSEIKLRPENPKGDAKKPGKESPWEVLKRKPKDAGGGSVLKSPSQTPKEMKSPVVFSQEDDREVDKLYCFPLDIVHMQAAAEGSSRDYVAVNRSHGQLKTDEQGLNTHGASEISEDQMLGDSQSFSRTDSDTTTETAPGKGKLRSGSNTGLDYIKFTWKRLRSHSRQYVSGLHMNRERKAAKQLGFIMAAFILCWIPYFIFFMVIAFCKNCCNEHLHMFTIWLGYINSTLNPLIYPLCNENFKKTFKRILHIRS
Text: as §1, §2
Experimental conditions for tests are given in Table 14, and results of tests for representative compounds are presented in Table 15.

T1 sequence (P20309 whole entry): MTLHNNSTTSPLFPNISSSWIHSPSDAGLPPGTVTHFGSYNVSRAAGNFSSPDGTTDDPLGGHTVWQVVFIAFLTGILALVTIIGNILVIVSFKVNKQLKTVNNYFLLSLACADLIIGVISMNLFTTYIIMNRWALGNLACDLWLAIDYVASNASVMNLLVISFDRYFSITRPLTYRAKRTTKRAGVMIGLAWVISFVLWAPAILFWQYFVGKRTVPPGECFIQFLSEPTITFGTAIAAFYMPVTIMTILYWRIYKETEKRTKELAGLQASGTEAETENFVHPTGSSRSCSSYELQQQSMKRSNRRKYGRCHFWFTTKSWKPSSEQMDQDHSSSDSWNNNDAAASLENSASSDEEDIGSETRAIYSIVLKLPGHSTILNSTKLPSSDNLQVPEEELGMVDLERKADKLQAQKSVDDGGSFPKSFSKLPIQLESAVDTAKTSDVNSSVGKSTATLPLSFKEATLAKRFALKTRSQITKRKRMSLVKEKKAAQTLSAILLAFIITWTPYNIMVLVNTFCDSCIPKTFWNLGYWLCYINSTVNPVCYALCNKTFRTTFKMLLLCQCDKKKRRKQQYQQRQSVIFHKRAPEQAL

Row | SMILES | inhibition at 1 µM (M3 muscarinic receptors) | inhibition at 1 µM (5-HT2C receptor) | inhibition at 1 µM (5-HT7 receptor) | inhibition at 1 µM (receptors D4.4) | inhibition at 1 µM (5-HT6 receptor) | inhibition at 1 µM (5-HT2A receptor) | inhibition at 1 µM [1] | Ki (5-HT6 receptor) | Ki (5-HT2A receptor) | M3 [%] (M3 muscarinic receptors) | 5-HT2C [%] (5-HT2C receptor) | 5-HT7 [%] (5-HT7 receptor) | D4.4 [%] (receptors D4.4) | 5-HT6 [%] (5-HT6 receptor) | 5-HT2A [%] (5-HT2A receptor) | D3 [%] [1] | H1 [%] [2] | inhibition at 1 µM [2]
1 | O=S(=O)(NC1CCN(CCOc2nsc3ccccc23)C1)c1ccc2ccccc2c1 (stereo not shown) [Compound 39, N-[1-[2-(1,2-Benzothiazol-3-yloxy)ethyl]pyrrolidin-3-yl]naphthalene-2-sulphonamide] | 19% | 74% | 90% | 73% | 92% | 99% | 95% | – | – | – | – | – | – | – | – | – | – | –
2 | O=S(=O)(N[C@@H]1CCN(CCCc2noc3cc(F)ccc23)C1)c1ccc2ccccc2c1 [Compound 206, N-[(3R)-1-[3-(6-Fluoro-1,2-benzoxazol-3-yl)propyl]pyrrolidin-3-yl]naphthalene-2-sulphonamide] | 9% | 84% | 100% | 87% | 101% | 100% | 95% | 6.1 nM | 0.7 nM | – | – | – | – | – | – | – | – | –
3 | O=S(=O)(NC1CN(CCOc2cccc3c2OCCO3)C1)c1cccc2ccccc12 [Compound 94, N-[1-[2-(2,3-Dihydro-1,4-benzodioxan-8-yloxy)ethyl]azetidin-3-yl]-naphthalene-1-sulphonamide] | – | – | – | – | – | – | – | – | – | 1% | 91% | 100% | 90% | 65% | 99% | 105% | – | –
4 | CC1(C)Cc2cccc(OCCN3CCC(NS(=O)(=O)c4cccc(O)c4)CC3)c2O1 [Compound 109, N-[1-[2-[(2,2-Dimethyl-3H-benzofuran-7-yl)oxy]ethyl]-4-piperidine]-3-hydroxy-benzenesulphonamide] | – | – | – | – | – | – | – | – | – | 3% | – | 99% | 69% | 67% | 95% | 86% | 65% | –
5 | Cc1ccc2sc(S(=O)(=O)N[C@H]3CCN(CCCc4noc5cc(F)ccc45)C3)cc2c1 [Compound 229, N-[(3S)-1-[3-(6-Fluoro-1,2-benzoxazol-3-yl)propyl]pyrrolidin-3-yl]-5-methylbenzothiophene-2-sulphonamide] | 15% | – | 99% | 86% | 98% | – | 93% | 43 nM | 0.6 nM | – | – | – | – | – | – | – | – | 75%
6 | Cc1c(S(=O)(=O)N[C@@H]2CCN(CCCc3noc4cc(F)ccc34)C2)sc2ccc(Cl)cc12 [Compound 204, 5-Chloro-N-[(3R)-1-[3-(6-fluoro-1,2-benzoxazol-3-yl)propyl]pyrrolidin-3-yl]-3-methyl-benzothiophene-2-sulphonamide] | 17% | 87% | 87% | 71% | 97% | – | 96% | 6.9 nM | 0.8 nM | – | – | – | – | – | – | – | – | –
7 | O=S(=O)(NC1CCN(CCCc2c[nH]c3ccc(F)cc23)C1)c1ccc2ccccc2c1 (stereo not shown) [Compound 80, N-[1-[3-(5-Fluoro-1H-indol-3-yl)propyl]pyrrolidin-3-yl]naphthalene-2-sulphonamide] | 2% | 86% | 93% | 91% | 96% | 100% | 100% | 15 nM | – | – | – | – | – | – | – | – | – | –
8 | O=S(=O)(NCC1CCN(CCCc2noc3cc(F)ccc23)C1)c1cccc2ccccc12 (stereo not shown) [Compound 239, N-[[1-[3-(6-Fluoro-1,2-benzoxazol-3-yl)propyl]pyrrolidin-3-yl]methyl]naphthalene-1-sulphonamide] | 23% | 49% | 92% | 78% | 97% | 98% | 76% | – | – | – | – | – | – | – | – | – | – | –
9 | Cc1c(S(=O)(=O)N[C@@H]2CCN(CCCc3noc4cc(F)ccc34)C2)sc2ccc(F)cc12 [Compound 202, 5-Fluoro-N-[(3R)-1-[3-(6-fluoro-1,2-benzoxazol-3-yl)propyl]pyrrolidin-3-yl]-3-methyl-benzothiophene-2-sulphonamide] | 9% | 88% | 98% | 76% | 100% | 99% | 96% | 7.1 nM | 1.4 nM | – | – | – | – | – | – | – | – | –
10 | O=S(=O)(N[C@@H]1CCN(CCCc2noc3cc(F)ccc23)C1)c1ccc2cc(Cl)ccc2c1 [Compound 200, 6-Chloro-N-[(3R)-1-[3-(6-fluoro-1,2-benzoxazol-3-yl)propyl]pyrrolidin-3-yl]naphthalene-2-sulphonamide] | 3% | 77% | 93% | 49% | 99% | 99% | 94% | 10 nM | 2.3 nM | – | – | – | – | – | – | – | – | –
11 | O=S(=O)(NC1CN(CCOc2cccc3[nH]ccc23)C1)c1cccc2ccccc12 [Compound 49, N-[1-[2-(1H-Indol-4-yloxy)ethyl]azetidin-3-yl]naphthalene-1-sulphonamide] | 11% | 59% | 100% | 82% | 34% | 82% | 106% | – | – | – | – | – | – | – | – | – | – | –
12 | Cc1ccc2sc(S(=O)(=O)N[C@@H]3CCN(CCCc4noc5cc(F)ccc45)C3)cc2c1 [Compound 228, N-[(3R)-1-[3-(6-Fluoro-1,2-benzoxazol-3-yl)propyl]pyrrolidin-3-yl]-5-methyl-benzothiophene-2-sulphonamide] | 12% | 91% | 92% | 68% | 100% | – | 97% | 14 nM | 1 nM | – | – | – | – | – | – | – | – | –
